Marks after values point to notes of the source that are not given here. No end group written: not given here.
Assays:
HIV = type: cell-based; details: ns = not significantly different from control
[1] = system: MIP1α induced THP-1 migration; experiment: THP-1 trans-well migration assay, MIP1α as chemoattractant; type: cell-based, human; details: ns = not significantly different from control
Experimental: (§1) To determine whether an agent inhibits a chemokine-induced activity, such as macrophage recruitment, varying amounts of the agent are mixed with cells in the presence of a known chemoattractant. For example, a range of known concentrations of an agent, e.g., a chemokine peptide, is incubated with a defined number (e.g., 10^4-10^6) of human THP-1 monocyte cells in individual wells of the top compartment of a trans-well plate. Chemokine (such as MCP-1, MIP1α, IL8 or SDF-1α), at a concentration known to cause significant migration of THP-1 cells in the trans-well migration assay, is placed in the lower compartment (FIG. 1). Cells are then incubated at 37° C. for a period sufficient to allow migration, e.g., 4 hours. After incubation, the cells are gently removed from the top of the filter with a pipette, 20 μl of 20 mM EDTA in simple PBS is added into each top well, and incubated for 20 minutes at 4° C. The filter is carefully flushed with media using a gentle flow, and removed. A standard curve consisting of a two-fold dilution series of THP-1 cells (in 29 μl) is prepared to accurately quantify the number of cells that have migrated. Migrated cells are stained with 3 μl of MTT stock dye solution which is added directly into each well (5 mg/ml in RPMI-1640 without phenol red, Sigma Chemical Co.) and incubated at 37° C. for 4 hours. The media is carefully aspirated from each well, and the converted dye is solubilized by 20 μl of DMSO. Absorbance of converted dye is measured at a wavelength of 595 nm using an ELISA plate reader. The number of migrated cells in each well is then determined by interpolation of the standard curve (see also Imai et al., J. Biol. Chem., 272, 15036 (1997)).
(§2) For this assay, THP-1 cells were maintained at a density of 4×10^5 cells per ml in RPMI-1640 supplemented with 10% fetal calf serum+20 μM 2-mercaptoethanol. Chemotaxis was induced in a 96-well disposable chemotaxis chamber fitted with a […] polycarbonate filter (PVP free, ChemoTX, Neuroprobe Inc., Cabin John). Twenty-nine μl of chemoattractant (recombinant human chemokine; 50 ng/ml, i.e., 5.9 nM) or control (100 ng/ml TGFβ) was added to the lower compartment of each well. The framed filter was aligned with the holes in the corner of the filter frame and placed over the wells. Five×10^4 THP-1 cells in 25 μl of RPMI-1640 were added to the upper compartment. Peptides were dissolved in Milli Q water and then serially diluted in culture medium. In most cases, the serially diluted peptides were added to the upper compartment of the chemotaxis chamber. The chamber was incubated at 37° C. in a humidified atmosphere of 5% CO2 for 4 hours.
(§3) After incubation, the cells were gently removed from the top of the filter with a pipette, 20 μl of 20 mM EDTA in PBS was added into each top well, and the mixture was incubated for 20 minutes at 4° C. The filter was then carefully flushed with media using a gentle flow, and removed. A standard curve was prepared to accurately quantify the number of THP-1 cells that had migrated. The curve was based on a two-fold dilution series of THP-1 cells (top standard 100,000 cells in 29 μl). Cells which had migrated, and in separate wells, the cells in the standards, were stained with 3 μl of MTT stock solution which was added directly into each well (5 mg/ml in RPMI 1640 without phenol red, Sigma Chemical Co.) and incubated at 37° C. for 4 hours. The media was carefully aspirated from each well, and the converted dye was solubilized by 20 μl of DMSO. Absorbance of converted dye was measured at a wavelength of 595 nm using an ELISA plate reader. The number of cells that had migrated in each well was determined by interpolation of the standard curve.

gp120 = details: ns = not significantly different from control; >100 = ED50 not determined
[2] = system: MCP-1 induced THP-1 migration; experiment: THP-1 trans-well migration assay, MCP-1 as chemoattractant; type: cell-based, human; details: ns = not significantly different from control
Experimental: as §1, §2, §3

[3] = system: SDF-1α induced THP-1 migration; experiment: THP-1 trans-well migration assay, SDF-1α as chemoattractant; type: cell-based, human; details: for SDF1a ED-50: ns = not significantly different from control
Experimental: as §1, §2, §3

[4] = target: T1, Duffy Antigen Receptor for Chemokines (DARC) (Homo sapiens, UniProt Q16570); experiment: DARC binding: competition with 125I-MCP-1 on red blood cells
T1 sequence (Q16570 1-336): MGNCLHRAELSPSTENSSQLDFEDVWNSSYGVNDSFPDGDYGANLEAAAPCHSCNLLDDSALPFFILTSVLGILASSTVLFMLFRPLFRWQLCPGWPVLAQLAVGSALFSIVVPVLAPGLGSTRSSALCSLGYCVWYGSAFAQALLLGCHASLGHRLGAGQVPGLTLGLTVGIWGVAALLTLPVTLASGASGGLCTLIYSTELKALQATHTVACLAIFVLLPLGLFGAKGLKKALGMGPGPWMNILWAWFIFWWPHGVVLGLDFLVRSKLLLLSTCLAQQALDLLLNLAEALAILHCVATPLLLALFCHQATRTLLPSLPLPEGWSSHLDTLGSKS

[5] = system: chemokine-induced THP-1 migration; experiment: THP-1 trans-well migration assay, panel of chemokines (MCP-1, MIP1α, IL-8, SDF1α); type: cell-based, human; details: for Chemokine antagonist: active against at least one of IL-8, SDF-1α
[6] = system: chemokine receptors on THP-1 cells; experiment: Binding to chemokine receptors on THP-1 cells; design: species or system human
Experimental: In general, specific binding is calculated as the amount of labeled agent bound in the absence of cold competitor minus the amount of labeled agent bound in the presence of cold competitor. The amount of specific binding in the presence of varied amounts of cold competitor can be used to determine the association constant for the agent, as well as the number of binding sites on the cell for the agent, using, for example, Scatchard Analysis. The agent may be labeled by radiolabeling (e.g., iodination) or with a suitable biochemical tag (e.g., biotin) or by addition of a photoactivatable crosslinking group. Agents with an association constant lower than 100 μM (i.e., which bind more strongly than an agent with an association constant of 100 μM) and which have at least about 2,500, preferably at least about 10,000, and more preferably greater than 25,000, binding sites per cell for at least one cell type which expresses a chemokine receptor, fall under the scope of this invention. THP-1 cells have at least about 5,000 MCP-1 receptors/cell.
For example, monocytes are suspended in RPMI 1640 medium without bicarbonate containing 0.2% bovine serum albumin and 0.1% azide. Radiolabeled chemokine peptide is incubated with 1-2×10^6 cells, e.g., THP-1 cells, in the presence or absence of increasing concentrations of unlabeled chemokine (MCP-1, MCP-3, MCP-4, RANTES or MIP-1α) for 15 minutes at 37° C. in a 96-well plate in a final volume of 0.2 ml (e.g., PBS+0.5% FCS). After the incubation, 0.5 ml of ice-cold wash buffer (20 mM Tris, 0.5 M NaCl, pH 7.4) is added, and cells are collected onto a polyethyleneimine-treated Whatman GF/C filter using a Brandall cell harvester. Filters are washed with 4 ml of cold wash buffer, and the radioactivity bound to the filters is counted in a γ-counter.
For Scatchard analysis, the absorbance readings at 450 nm were calibrated, by reference to a standard curve in which known amounts of labeled peptide were coupled to derivatized sepharose beads (activated thiol-sepharose 4B; Sigma T8512) via the cysteine residue in each peptide. Briefly, known amounts (1 fmol to 1 pmol) of biotin-labeled peptide were incubated with 1 mg of activated thiol-sepharose beads in 100 μl of PBS at 37° C. for 1 hour. Free activated thiols were then blocked by addition of cysteine to a final concentration of 10 mM. The peptide-conjugated beads were then washed 5 times in PBS and treated exactly as for the cells described above. The absorbance at 450 nm obtained when a known amount of peptide was coupled to the beads was used to construct a standard curve which was used to convert the absorbance readings obtained with cells into number of molecules of labeled peptide which had bound.

[7] = target: T2, Recombinant human latent TGF-β1 (Homo sapiens, UniProt P01137); experiment: Latent TGF-β1 activation ELISA (R2X capture); type: biochemical; design: key: −: A minus indicates no detectable activity in the assay; +: The number of pluses is a qualitative indicating of the activity of each peptide in each assay; ++: The number of pluses is a qualitative indicating of the activity of each peptide in each assay; +++: The number of pluses is a qualitative indicating of the activity of each peptide in each assay; ++++: The number of pluses is a qualitative indicating of the activity of each peptide in each assay; +++++: The number of pluses is a qualitative indicating of the activity of each peptide in each assay; details: test peptide at 100 nM, 37° C., 90 minutes
T2 construct: purchased R&D Systems; host or cells: CHO cells
Experimental: To test whether a KXK tripeptide activates TGF-beta, a direct ELISA-type assay can be used. Recombinant human latent TGF-β1 produced in CHO cells (R&D Systems) was incubated with the test activator. For example, 200 ng of latent TGF-β1 (at 20 μg/ml) was incubated with test peptide at 100 nM final concentration at 37° C. for 90 minutes. Following incubation, the TGF-β is incubated with the recombinant extracellular domain of the Type II TGF-β receptor (R2X) which binds only the active and not the latent forms of TGF-β1 (Clin. Chim. Acta, 235, 11 (1995)). For example, 1 μg of purified R2X is coated onto a Maxisorp ELISA plate well in 50 μl of 100 mM sodium carbonate for 2 hours at 4° C., and non-specific protein binding then blocked incubation with 5% sucrose 5% Tween-20 in Tris-buffered saline for 1 hour at room temperature.
The TGF-β sample is then incubated with the coated and blocked wells for 2 hours at room temperature with shaking. Wells are washed 3 times quickly with Tris-buffered saline containing 0.05% Tween-20 between each incubation. If any of the latent TGF-β1 has been activated by the incubation with test peptide, it is captured by the R2X, while remaining latent TGF-β1 is washed away. Captured active TGF-β1 is then detected by incubation with a suitable detection agent, such as a peroxidase conjugated polyclonal anti-TGF-beta antibody. For example, the wells are incubated with 200 μl of BDA19 chicken anti-TGF-β1 antibody coupled to horseradish peroxidase for 90 minutes at room temperature with shaking. Any bound peroxidase is then detected using a suitable chromogenic substrate (e.g., K-BLUE TMB substrate solution). The amount of active TGF-β generated is estimated by interpolation of a standard curve constructed using known amounts of active TGF-β1 (R&D Systems).

T2 sequence (P01137 30-278 limits assumed): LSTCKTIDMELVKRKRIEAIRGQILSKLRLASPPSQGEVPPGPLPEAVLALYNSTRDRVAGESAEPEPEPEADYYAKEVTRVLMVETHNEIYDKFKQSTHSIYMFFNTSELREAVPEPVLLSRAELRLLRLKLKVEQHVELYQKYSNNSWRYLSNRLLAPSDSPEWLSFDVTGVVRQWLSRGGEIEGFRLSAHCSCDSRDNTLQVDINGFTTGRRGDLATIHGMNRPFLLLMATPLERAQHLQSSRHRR

Row | Compound | Chemokine antagonist ([5]; MCP-1, MIP1α) | TGF-beta Activator [7] | other results
1 | CC[C@H](C)[C@H](NC(=O)[C@H](CCCNC(=N)N)NC(=O)[C@H](CCCNC(=N)N)NC(=O)[C@H](Cc1ccc(O)cc1)NC(=O)[C@@H](N)CO)C(=O)N[C@H](C(=O)N[C@@H](CO)C(=O)N[C@@H](CO)C(=O)N[C@@H](CCCCN)C(=O)N[C@@H](CS)C(=O)O)[C@@H](C)O |  |  | % virus inhibition (HIV): ns; MIPIa ED-50 [1]: ns; gp120 ED-50 (gp120): 60 µM; MCP-1 ED-50 [2]: ns; SDF1a ED-50 [3]: ns
2 | CSYRRITSSKSPKEAVC |  |  | % virus inhibition (HIV): ns; DARC binding ([4]; ns = not significantly different from control, >100 = ED50 not determined): ns; MIPIa ED-50 [1]: ns; MCP-1 ED-50 [2]: ns; SDF1a ED-50 [3]: ns
3 | HLKILNTPNCALQIV [Pep2[SDF1]] |  |  | DUFFY SELECTIVITY, peptide 2 family ([4]; ka for binding to red blood cells divided by the ka for binding THP-1 cells): <1^d; MIPIa ED-50 [1]: 40 =M; gp120 ED-50 (gp120): 35 µM; MCP-1 ED-50 [2]: 10 =M; effect on THP-1 migration induced by the chemokine panel, in words ([5]; MCP-1, MIP1α, IL-8, SDF1α): potent pan-chemokine antagonist properties; AVERAGE ED50, peptide 2 family: estimated ka for binding to THP-1 cells [6]: 1-10^e μM; SDF1a ED-50 [3]: 7 =M
4 | KDK | + | − | 
5 | KEK | + | − | 
6 | KFK | − | ++++ | 
7 | KGK | − | − | 
8 | KIK | ++ | ++ | 
9 | KKK | ++++ | − | 
10 | KLK | ++++ | +++ | CC SPECIFICITY ([5]; average inhibitory ED50 versus SDF1 and IL8 divided by average inhibitory ED50 versus MCP-1 and MIP1α): <0.1; EC50 ([5]; footnote f, KQK MCP-1, SEE MIP1α, KLK SDF1, KEN IL8, read-out: ED50 of a tripeptide against the one chemokine it is highly specific for): 0.1 to 10 µM; percentage inhibition of migration induced by SDF1α ([3]; tripeptide at 100 μM, mean ± range, dash = no statistically significant reduction in migration): 87 ± 6%
11 | KSK | − | − | 
12 | KTK | − | − | 
13 | KWK | − | − | 
14 | KYK | − | +++++ | 
